Data taken from ChEMBL document CHEMBL1201862, “PubChem BioAssay data set” (2004).
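Briefly, cells in 96-well plates were exposed to five compound concentrations for 48 h, and endpoints were estimated by linear interpolation. GI50 is the concentration that inhibits growth by half.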 Activity calls are given as the source filed them. Cut-off read from the data, not from the text of the source: active = GI50 up to about 1.1 µM and inactive = higher.

Key:
Assay in all cases: growth of human tumour cells (NCI), 48 h
[1] = system: 786-0
[2] = system: A498
[3] = system: A549
[4] = system: ACHN
[5] = system: CAKI-1
[6] = system: CCRF-CEM
[7] = system: COLO 205
[8] = system: DLD-1
[9] = system: DMS-114
[10] = system: EKVX
[11] = system: HCC 2998
[12] = system: HCT-116
[13] = system: HCT-15
[14] = system: HL-60
[15] = system: HOP-18
[16] = system: HOP-62
[17] = system: HOP-92
[18] = system: HT-29
[19] = system: IGROV-1
[20] = system: K562
[21] = system: KM-20L2
[22] = system: LOX IMVI
[23] = system: LXFL 529
[24] = system: M14
[25] = system: M19-MEL
[26] = system: MOLT-4
[27] = system: Malme-3M
[28] = system: NCI-H226
[29] = system: NCI-H23
[30] = system: NCI-H460
[31] = system: OVCAR-3
[32] = system: OVCAR-4
[33] = system: OVCAR-5
[34] = system: OVCAR-8
[35] = system: RPMI-8226
[36] = system: RXF 393
[37] = system: RXF 631
[38] = system: SF-268
[39] = system: SF-295
[40] = system: SF-539
[41] = system: SK-MEL-28
[42] = system: SK-MEL-5
[43] = system: SN12C
[44] = system: SNB-19
[45] = system: SNB-75
[46] = system: SNB-78
[47] = system: SR
[48] = system: SW-620
[49] = system: TK-10
[50] = system: UACC-257
[51] = system: UACC-62
[52] = system: UO-31
[53] = system: DMS-273
[54] = system: KM12
[55] = system: NCI-H522
[56] = system: SK-MEL-2
[57] = system: SK-OV-3
[58] = system: U-251
[59] = system: MCF7
[60] = system: NCI/ADR-RES
[61] = system: XF498
[62] = system: BT-549
[63] = system: DU-145
[64] = system: Hs-578T
[65] = system: MDA-MB-231
[66] = system: MDA-MB-435
[67] = system: MDA-N
[68] = system: T47D

Measured: GI50

COc1cc2c(cc1O)CC13CCC(=O)N1CCc1cc(OC)c(O)c-2c13 (stereo unspecified)
> 68.1 µM: [13]
inactive: [1] > 68.1 µM | [2] > 68.1 µM | [3] > 68.1 µM | [4] > 68.1 µM | [5] > 68.1 µM | [6] > 68.1 µM | [7] > 68.1 µM | [8] > 68.1 µM | [9] > 68.1 µM | [10] > 68.1 µM | [11] > 68.1 µM | [12] > 68.1 µM | [14] > 68.1 µM | [15] > 68.1 µM | [16] > 68.1 µM | [17] > 68.1 µM | [18] > 68.1 µM | [19] > 68.1 µM | [20] > 68.1 µM | [21] > 68.1 µM | [22] > 68.1 µM | [23] > 68.1 µM | [24] > 68.1 µM | [25] > 68.1 µM | [26] > 68.1 µM | [27] > 68.1 µM | [28] > 68.1 µM | [29] > 68.1 µM | [30] > 68.1 µM | [31] > 68.1 µM | [32] > 68.1 µM | [33] > 68.1 µM | [34] > 68.1 µM | [35] > 68.1 µM | [36] > 68.1 µM | [37] 39.9 µM | [38] > 68.1 µM | [39] > 68.1 µM | [40] > 68.1 µM | [41] > 68.1 µM | [42] > 68.1 µM | [43] > 68.1 µM | [44] > 68.1 µM | [45] > 68.1 µM | [46] > 68.1 µM | [47] > 68.1 µM | [48] > 68.1 µM | [49] > 68.1 µM | [50] > 68.1 µM | [51] > 68.1 µM | [52] > 68.1 µM

C/C(CN1C(=O)c2ccccc2C1=O)=N\NS(=O)(=O)c1ccccc1
> 100 µM: [13]
inactive: [1] > 100 µM | [2] > 100 µM | [3] > 100 µM | [4] > 100 µM | [5] > 100 µM | [6] > 100 µM | [7] > 100 µM | [8] > 100 µM | [9] > 100 µM | [53] > 100 µM | [10] > 100 µM | [11] > 100 µM | [12] > 100 µM | [14] > 100 µM | [15] > 100 µM | [16] > 100 µM | [17] > 100 µM | [18] > 100 µM | [19] > 100 µM | [20] > 100 µM | [21] > 100 µM | [54] > 100 µM | [22] > 100 µM | [23] > 100 µM | [24] > 100 µM | [25] > 100 µM | [26] > 100 µM | [27] > 100 µM | [28] > 100 µM | [29] > 100 µM | [30] > 100 µM | [55] > 100 µM | [31] > 100 µM | [32] > 100 µM | [33] > 100 µM | [34] > 100 µM | [35] > 100 µM | [37] > 100 µM | [38] > 100 µM | [39] > 100 µM | [40] > 100 µM | [41] > 100 µM | [56] > 100 µM | [42] > 100 µM | [57] > 100 µM | [43] > 100 µM | [44] > 100 µM | [45] > 100 µM | [46] > 100 µM | [48] > 100 µM | [49] > 100 µM | [58] > 100 µM | [50] > 100 µM | [51] > 100 µM | [52] > 100 µM

C[C@@H]1C[C@]2(C[C@@H](C)[C@H]3C(C[C@@]4(C)CCC[C@@H]5C6=C[C@H](CCC34C)OC6=CC(=O)OC5(C)C)O2)OC1=O (stereo partly specified)
inactive: [2] > 51.5 µM | [3] > 51.5 µM | [5] > 51.5 µM | [6] > 51.5 µM | [7] > 51.5 µM | [8] > 51.5 µM | [9] > 51.5 µM | [53] > 51.5 µM | [10] > 51.5 µM | [11] > 51.5 µM | [14] > 51.5 µM | [15] > 51.5 µM | [16] > 51.5 µM | [17] 43.1 µM | [18] > 51.5 µM | [19] > 51.5 µM | [20] > 51.5 µM | [21] > 51.5 µM | [54] > 51.5 µM | [22] > 51.5 µM | [25] > 51.5 µM | [59] > 51.5 µM | [26] > 51.5 µM | [29] > 51.5 µM | [30] > 51.5 µM | [55] > 51.5 µM | [60] > 51.5 µM | [31] > 51.5 µM | [32] > 51.5 µM | [33] > 51.5 µM | [34] > 51.5 µM | [35] > 51.5 µM | [39] > 51.5 µM | [40] > 51.5 µM | [56] > 51.5 µM | [42] > 51.5 µM | [57] > 51.5 µM | [43] > 51.5 µM | [44] > 51.5 µM | [45] 13.1 µM | [46] > 51.5 µM | [48] > 51.5 µM | [58] > 51.5 µM | [50] > 51.5 µM | [51] > 51.5 µM | [52] > 51.5 µM | [61] > 51.5 µM
> 51.5 µM: [13]

O=C(CC1C(=O)Nc2ccccc2[S+]1[O-])Nc1cccc(Cl)c1 (stereo unspecified)
inactive: [1] 37.2 µM | [2] 13.2 µM | [3] > 100 µM | [4] 33.7 µM | [62] 26.3 µM | [5] 20.7 µM | [6] > 35.4 µM | [7] > 41 µM | [8] > 100 µM | [9] 47.1 µM | [63] 32.5 µM | [10] > 47.4 µM | [11] > 47.5 µM | [12] 31.6 µM | [14] > 33.5 µM | [15] > 100 µM | [16] 25.5 µM | [17] 19.5 µM | [18] > 35.6 µM | [64] 38.1 µM | [19] > 37.5 µM | [20] 6.61 µM | [21] > 100 µM | [54] > 57.9 µM | [22] > 100 µM | [23] 91.8 µM | [24] > 42.4 µM | [25] > 100 µM | [59] 13.8 µM | [65] 7.31 µM | [66] 27.9 µM | [67] 18.6 µM | [26] > 37.7 µM | [27] > 55.6 µM | [28] 44.3 µM | [29] > 44.9 µM | [30] > 44.6 µM | [60] 18.5 µM | [31] 32.7 µM | [32] > 53.8 µM | [33] > 62.7 µM | [34] 33 µM | [35] 7.98 µM | [36] 20.9 µM | [38] 55.1 µM | [39] 41.9 µM | [40] 18.6 µM | [41] > 57.7 µM | [56] 55.5 µM | [42] > 30.9 µM | [57] 31.3 µM | [43] > 51.9 µM | [44] 30.5 µM | [45] 16.4 µM | [46] 40.9 µM | [47] 4.93 µM | [48] > 48 µM | [68] 11.2 µM | [49] > 58.9 µM | [58] 33.7 µM | [50] > 50.5 µM | [51] > 43.1 µM | [52] 25.1 µM | [61] > 100 µM
27.1 µM: [13]
